Data as given in the Deep4Chem optical property database.
Each block holds one compound with its values, some of them ahead of it.

Assay: solvent given as SMILES

SMILES: Fc1c(F)c(-n2c3ccccc3c3ccccc32)c(F)c(-n2c3ccccc3c3ccccc32)c1-c1nnc(-c2ccccc2)o1
fluorescence lifetime (in Cc1ccccc1): 4.8 ns

SMILES: CC1=N/C(=C\c2ccc(C#N)c(N(C)C)c2)C(=O)N1C
fluorescence lifetime (in C1CCOC1): 6.8 ns
fluorescence lifetime (in CC#N): 3.5 ns
fluorescence lifetime (in CCCCCC): 16 ns

SMILES: Cc1cc(-c2ccc(-n3c4ccccc4c4ccccc43)cc2)nc(-c2ccc(-c3ccccc3)cc2)n1
fluorescence lifetime (in C1CCOC1): 4.02 ns
fluorescence lifetime (in CN(C)C=O): 6.66 ns
fluorescence lifetime (in Cc1ccccc1): 2.27 ns
fluorescence lifetime (in ClC(Cl)Cl): 3.93 ns

SMILES: [C-]#[N+]c1ccc(-c2ccc(NC)cc2)cc1
fluorescence lifetime (in CC#N): 1.8 ns
fluorescence lifetime (in CCOC(C)=O): 1.4 ns

SMILES: COc1ccc(-c2cc3c(cc2OC)-c2c(c4c(c5c2-c2cc(OC)c(-c6ccc(OC)cc6)cc2C5)C(=O)N(CCC(C)C)C4=O)C3)cc1
fluorescence lifetime (in C1CCOC1): 4.42 ns

SMILES: COc1ccc(-c2nc(C)cc(-c3ccc(-n4c5ccccc5c5ccccc54)cc3)n2)cc1
fluorescence lifetime (in C1CCOC1): 3.76 ns
fluorescence lifetime (in CN(C)C=O): 6.51 ns
fluorescence lifetime (in Cc1ccccc1): 1.87 ns
fluorescence lifetime (in ClC(Cl)Cl): 3.91 ns

SMILES: CC/C=C/C=C/C=C/C=C/CCCCCCCC(=O)O
fluorescence lifetime (in CCCCCCCCCC): 3.1 ns
fluorescence lifetime (in CCCCO): 1.5 ns

SMILES: CN(C)c1ccc2nc(/C=C/c3ccccc3)c(=O)oc2c1
fluorescence lifetime (in C1CCCCC1): 2.82 ns
fluorescence lifetime (in C1COCCO1): 3.52 ns
fluorescence lifetime (in CC#N): 3.95 ns
fluorescence lifetime (in CC(C)=O): 3.82 ns
fluorescence lifetime (in CCCCCCC): 2.8 ns
fluorescence lifetime (in CCO): 3.77 ns
fluorescence lifetime (in CCOC(C)=O): 3.58 ns
fluorescence lifetime (in CN(C)C=O): 3.65 ns
fluorescence lifetime (in CS(C)=O): 3.58 ns
fluorescence lifetime (in Cc1ccccc1): 3 ns
fluorescence lifetime (in ClC(Cl)Cl): 3.74 ns
fluorescence lifetime (in ClCCl): 3.83 ns

SMILES: COc1cc2cc(OC)c(C#Cc3ccc([N+](=O)[O-])cc3)cc2cc1C#Cc1ccc([N+](=O)[O-])cc1
fluorescence lifetime (in C1CCOC1): 0.25 ns
fluorescence lifetime (in ClC(Cl)Cl): 0.9 ns
fluorescence lifetime (in ClCCl): 0.38 ns

SMILES: O=C1CCCC2=C1CC1=C(CCCC1=O)N2NC(=O)c1ccc(O)cc1
fluorescence lifetime (in CC#N): 6.2 ns
fluorescence lifetime (in CC(C)=O): 5.6 ns
fluorescence lifetime (in CCCCCO): 6.5 ns
fluorescence lifetime (in CO): 4.8 ns
fluorescence lifetime (in ClC(Cl)Cl): 8.2 ns
fluorescence lifetime (in ClCCl): 5.4 ns

SMILES: COC(=O)c1ccc(C2=C3C=CC(C)=[N+]3[B-](F)(F)n3c(C)ccc32)cc1
fluorescence lifetime (in C1CCCCC1): 0.54 ns
fluorescence lifetime (in Cc1ccccc1): 0.82 ns

Second part, the compound after the results:

fluorescence lifetime (in ClC(Cl)Cl): 1.69 ns
SMILES: CC(C)(C)c1ccc(C2=c3sc(-c4ccc(C(C)(C)C)cc4)cc3=[N+]3C2=Nc2c(-c4ccc(C(C)(C)C)cc4)c4sc(-c5ccc(C(C)(C)C)cc5)cc4n2[B-]3(F)F)cc1

fluorescence lifetime (in ClC(Cl)Cl): 1.4 ns
SMILES: N#CCc1ccccc1-c1cc2ccccc2oc1=O

fluorescence lifetime (in C1CCOC1): 4.6 ns
SMILES: Cc1ccc(-c2cnc3nn4ccccc4c3c2)cc1

fluorescence lifetime (in CC1CCCCC1): 1.05 ns
fluorescence lifetime (in CC#N): 1.14 ns
fluorescence lifetime (in CO): 1.21 ns
SMILES: C=CCOc1ccc(-c2nc3cc(C(NC(=O)OC(C)(C)C)C(=O)OC)ccc3o2)cc1 (centres undefined)

fluorescence lifetime (in C1CCCCC1): 6.1 ns
fluorescence lifetime (in CC#N): 4.8 ns
fluorescence lifetime (in c1ccccc1): 11 ns
SMILES: CN(C)c1ccc2c(c1)-c1ccccc1C2=O

fluorescence lifetime (in ClCCl): 22.3 ns
SMILES: CC(C)(C)C#Cc1cc2c(C#CC(C)(C)C)c(C#CC(C)(C)C)c3cc(C#CC(C)(C)C)cc4c(C#CC(C)(C)C)c(C#CC(C)(C)C)c(c1)c2c34

fluorescence lifetime (in C1CCCCC1): 1.3 ns
fluorescence lifetime (in ClC(Cl)Cl): 3.5 ns
SMILES: CN(C)c1ccc(-c2nc(C#N)c(C#N)n2C)cc1

fluorescence lifetime (in C1CCCCC1): 0.34 ns
fluorescence lifetime (in CC#N): 0.196 ns
fluorescence lifetime (in CCO): 0.253 ns
fluorescence lifetime (in CCOC(C)=O): 0.237 ns
fluorescence lifetime (in CO): 0.197 ns
fluorescence lifetime (in OCC(F)(F)F): 0.323 ns
SMILES: Cc1ccc(C2=C3C=CC=[N+]3[B-](F)(F)n3cccc32)cc1

fluorescence lifetime (in O): 7.1 ns
SMILES: O=C(O)CCCCCn1c2ccc(Br)cc2c(=O)c2cc(S(=O)(=O)O)ccc21

fluorescence lifetime (in ClCCl): 4.26 ns
SMILES: Fc1ccc(N(c2ccc(F)cc2)c2ccc3c4cccc5c(N(c6ccc(F)cc6)c6ccc(F)cc6)ccc(c6cccc2c63)c54)cc1

fluorescence lifetime (in C1COCCO1): 2.8 ns
SMILES: CCC12C(=C3C(=C4c5ccc(-c6ccc(C(C)=O)cc6)cc5S(=O)(=O)C41CC)C(F)(F)C(F)(F)C3(F)F)c1ccc(-c3ccc(C(C)=O)cc3)cc1S2(=O)=O (centres undefined)

fluorescence lifetime (in CC#N): 2.3 ns
SMILES: COc1cc2cc(/C=C/c3ccc(/C=C/c4ccc(/C=C(\C#N)C(=O)O)cc4)cc3)c(=O)oc2cc1OC

fluorescence lifetime (in C1CCCCC1): 11.1 ns
SMILES: COc1ccccc1

fluorescence lifetime (in CCO): 5.21 ns
fluorescence lifetime (in O): 4.79 ns
SMILES: O=C([O-])c1ccc(C(=O)[O-])c(C2=c3cc4c5c(c3Oc3c2cc2c6c3CCCN6CCC2)CCC[N+]=5CCC4)c1

fluorescence lifetime (in ClCCl): 1.4 ns
SMILES: C[Si]1(C)c2cc(-c3cccs3)ccc2C=Cc2ccc(-c3cccs3)cc21

fluorescence lifetime (in CO): 0.22 ns
fluorescence lifetime (in ClC(Cl)Cl): 0.12 ns
SMILES: Cc1ccc(NC(=O)c2sc(Br)nc2C)cc1

fluorescence lifetime (in CC#N): 2.4 ns
SMILES: CC(=O)OC[C@H]1O[C@@H](OCC#Cc2ccc(C3=C4C(C)=CC(/C=C/c5ccc(N(C)C)cc5)=[N+]4[B-](F)(F)n4c(/C=C/c5ccc(N(C)C)cc5)cc(C)c43)cc2)[C@H](OC(C)=O)C(OC(C)=O)[C@@H]1OC(C)=O (some centres undefined)
